The subject of this assay is L1210 leukemia ip in BDF1 mice, survival T/C. The assay is described as follows: NCI In Vivo Anticancer Drug Screen. Data for tumor model L1210 Leukemia (intraperitoneal) in B6D2F1 (BDF1) mice. The conditions noted are these: higher = longer survival. Summed up: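 Tumor cells were implanted, animals were treated, and survival was followed. The result divides the treated measurement by the vehicle-control measurement.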

Setting [1] is: endpoint: mean survival time, dose: 100.0 mg/kg/injection, schedule: Q04DX003 (ip), vehicle: Klucel (hydroxypropylcellulose) (HPC).
Where [2] appears, read: endpoint: mean survival time, dose: 100.0 mg/kg/injection, schedule: Q04DX003 (ip), vehicle: saline with Tween-80.
Where [3] appears, read: endpoint: mean survival time, dose: 200.0 mg/kg/injection, schedule: Q04DX003 (ip), vehicle: Klucel (hydroxypropylcellulose) (HPC).
The mark [4] stands for this setting: endpoint: mean survival time, dose: 200.0 mg/kg/injection, schedule: Q04DX003 (ip), vehicle: saline with Tween-80.
Where [5] appears, read: endpoint: mean survival time, dose: 400.0 mg/kg/injection, schedule: Q04DX003 (ip), vehicle: Klucel (hydroxypropylcellulose) (HPC).
[6] abbreviates: endpoint: mean survival time, dose: 100.0 mg/kg/injection, schedule: Q04DX002 (ip), vehicle: saline with Tween-80.
The mark [7] stands for this setting: endpoint: mean survival time, dose: 50.0 mg/kg/injection, schedule: Q01DX009 (ip), vehicle: Klucel (hydroxypropylcellulose) (HPC).
Setting [8] is: endpoint: mean survival time, dose: 100.0 mg/kg/injection, schedule: Q01DX009 (ip), vehicle: Klucel (hydroxypropylcellulose) (HPC).
The mark [9] stands for this setting: endpoint: mean survival time, dose: 200.0 mg/kg/injection, schedule: Q01DX009 (ip), vehicle: Klucel (hydroxypropylcellulose) (HPC).
[10] abbreviates: endpoint: mean survival time, dose: 25.0 mg/kg/injection, schedule: Q04DX003 (ip), vehicle: saline with Tween-80.
[11] abbreviates: endpoint: mean survival time, dose: 50.0 mg/kg/injection, schedule: Q04DX003 (ip), vehicle: saline with Tween-80.

SMILES strings stand for the structures. Values joined by “and” are separate entries in the source; they are usually repeats but may differ in a detail not shown here. Equal values may be shown once. Toxic doses and inconclusive results are not listed.

As for `O=C(NC1CCC(C(=O)O)CC1)OCc1ccccc1` (stereo unspecified), the T/C (endpoint: mean survival time, dose: 100.0 mg/kg/injection, schedule: Q01DX001 (ip), vehicle: saline) is 98 % of control; the T/C (endpoint: mean survival time, dose: 100.0 mg/kg/injection, schedule: Q01DX009 (ip), vehicle: saline) was 109 % of control; the T/C (endpoint: mean survival time, dose: 100.0 mg/kg/injection, schedule: Q04DX003 (ip), vehicle: acetone) was 96 % of control; the T/C (endpoint: mean survival time, dose: 200.0 mg/kg/injection, schedule: Q01DX001 (ip), vehicle: saline) is 102 % of control; the T/C (endpoint: mean survival time, dose: 200.0 mg/kg/injection, schedule: Q01DX009 (ip), vehicle: saline) is 100 % of control; the T/C (endpoint: mean survival time, dose: 200.0 mg/kg/injection, schedule: Q04DX003 (ip), vehicle: acetone) is 102 % of control. The T/C is 98 % of control (endpoint: mean survival time, dose: 400.0 mg/kg/injection, schedule: Q01DX001 (ip), vehicle: saline); 105 % of control (endpoint: mean survival time, dose: 400.0 mg/kg/injection, schedule: Q01DX009 (ip), vehicle: saline); 98 % of control (endpoint: mean survival time, dose: 400.0 mg/kg/injection, schedule: Q04DX003 (ip), vehicle: acetone).
As to `O=C(CNCc1ccccc1)NC(Cc1ccccc1)c1ccccc1` (stereo unspecified), the T/C runs as follows: under setting [1], 96 % of control; under setting [2], 101 % of control; under setting [3], 93 % of control; under setting [4], 94 % of control; under setting [5], 94 % of control; (endpoint: mean survival time, dose: 400.0 mg/kg/injection, schedule: Q04DX003 (ip), vehicle: saline with Tween-80) 94 % of control.
For the compound `O=C(O)C1C2C=CC(C2)C1C(=O)O` (stereo unspecified), the T/C reads like this: (endpoint: mean survival time, dose: 100.0 mg/kg/injection, schedule: Q01DX009 (ip), vehicle: saline with Tween-80) 97 % of control; (endpoint: mean survival time, dose: 200.0 mg/kg/injection, schedule: Q01DX009 (ip), vehicle: saline with Tween-80) 96 % of control; (endpoint: mean survival time, dose: 400.0 mg/kg/injection, schedule: Q01DX009 (ip), vehicle: saline with Tween-80) 98 % of control.
As for `CCCC1CCCC(=O)N1` (stereo unspecified), the T/C was 98 % of control (endpoint: mean survival time, dose: 75.0 mg/kg/injection, schedule: Q01DX001 (ip), vehicle: saline) and 98 % of control (endpoint: mean survival time, dose: 150.0 mg/kg/injection, schedule: Q01DX001 (ip), vehicle: saline).
Consider `CCCCCCCC(=O)N1CCCCC1CC` (stereo unspecified), for which the T/C under setting [6] was 96 % of control and the T/C (endpoint: mean survival time, dose: 200.0 mg/kg/injection, schedule: Q04DX002 (ip), vehicle: saline with Tween-80) is 86 % of control.
In the case of `Cc1ccccc1C(O)C(Cl)(Cl)Cl` (stereo unspecified), the T/C reads like this: (endpoint: median survival time, dose: 50.0 mg/kg/injection, schedule: Q04DX003 (ip), vehicle: Klucel (hydroxypropylcellulose) (HPC)) 118 % of control; (endpoint: median survival time, dose: 200.0 mg/kg/injection, schedule: Q04DX003 (ip), vehicle: Klucel (hydroxypropylcellulose) (HPC)) 157 % of control; (endpoint: median survival time, dose: 400.0 mg/kg/injection, schedule: Q04DX003 (ip), vehicle: Klucel (hydroxypropylcellulose) (HPC)) 204 % of control.
In the case of `CC1(c2cccc(Cl)c2)NC(=O)NC1=O` (stereo unspecified), the T/C was 112 % of control (endpoint: mean survival time, dose: 100.0 mg/kg/injection, schedule: Q04DX002 (ip), vehicle: Klucel (hydroxypropylcellulose) (HPC)); 105 % of control (endpoint: mean survival time, dose: 200.0 mg/kg/injection, schedule: Q04DX002 (ip), vehicle: Klucel (hydroxypropylcellulose) (HPC)); 108 % of control (endpoint: mean survival time, dose: 400.0 mg/kg/injection, schedule: Q04DX002 (ip), vehicle: Klucel (hydroxypropylcellulose) (HPC)).
Take `CC1(c2ccc(Cl)cc2)NC(=O)NC1=O` (stereo unspecified): the T/C under setting [7] was 97 % of control, the T/C under setting [8] was 101 % of control and the T/C under setting [9] was 94 % of control.
Regarding `Cc1ccc([P+](Cc2ccc(Cl)cc2Cl)(c2ccc(C)cc2)c2ccc(C)cc2)cc1`, the T/C is 103 % of control (endpoint: mean survival time, dose: 6.25 mg/kg/injection, schedule: Q04DX003 (ip), vehicle: Klucel (hydroxypropylcellulose) (HPC)) and 92 % of control (endpoint: mean survival time, dose: 12.5 mg/kg/injection, schedule: Q04DX003 (ip), vehicle: Klucel (hydroxypropylcellulose) (HPC)).
Consider `Clc1ccc(CC[PH+]2CC=CC2)cc1.Clc1ccc(CC[PH+]2CC=CC2)cc1.[Cl][Ni][Cl]`, for which the T/C under setting [6] is 107 % of control.
Regarding `COC(=O)C1(C(=O)OC)C=CCCC1=O`, the T/C under setting [1] was 108 % of control, the T/C under setting [3] was 107 % of control and the T/C under setting [5] is 96 % of control.
In the case of `O=C(O)c1cccc(-c2ccccc2)c1`, the T/C is 94 % of control under setting [10]; 93 % of control under setting [11]; 104 % of control under setting [2]; 101 % of control (endpoint: mean survival time, dose: 100.0 mg/kg/injection, schedule: Q04DX003 (ip), vehicle: saline); 94 % of control and 100 % of control under setting [4]; 106 % of control (endpoint: mean survival time, dose: 200.0 mg/kg/injection, schedule: Q04DX003 (ip), vehicle: saline). In addition, the T/C (endpoint: mean survival time, dose: 400.0 mg/kg/injection, schedule: Q04DX003 (ip), vehicle: saline) was 108 % of control.
`CC(C)(C)P1(=O)OCC(c2ccccc2)CO1` (stereo unspecified): the T/C is, setting by setting: (endpoint: mean survival time, dose: 100.0 mg/kg/injection, schedule: Q04DX003 (ip), vehicle: other) 101 % of control; (endpoint: mean survival time, dose: 200.0 mg/kg/injection, schedule: Q04DX003 (ip), vehicle: other) 107 % of control.
With `Cc1cnc(SCc2ccc(F)cc2)nc1N(C)C`, under “endpoint: mean survival time, dose: 100.0 mg/kg/injection, schedule: Q01DX Z (ip), vehicle: methylcellulose (MC)”, the T/C is 88 % of control.
On to `CCCCCCCCCCCCCCCC(=O)N(CCCC)CCCC`, for which the T/C reads like this: (endpoint: mean survival time, dose: 100.0 mg/kg/injection, schedule: Q01DX001 (ip), vehicle: carboxymethylcellulose (CMC)) 98 % of control; (endpoint: mean survival time, dose: 100.0 mg/kg/injection, schedule: Q01DX009 (ip), vehicle: carboxymethylcellulose (CMC)) 96 % of control and 110 % of control; (endpoint: mean survival time, dose: 100.0 mg/kg/injection, schedule: Q04DX003 (ip), vehicle: carboxymethylcellulose (CMC)) 96 % of control; (endpoint: mean survival time, dose: 200.0 mg/kg/injection, schedule: Q01DX001 (ip), vehicle: carboxymethylcellulose (CMC)) 102 % of control; (endpoint: mean survival time, dose: 200.0 mg/kg/injection, schedule: Q01DX009 (ip), vehicle: carboxymethylcellulose (CMC)) 100 % of control and 110 % of control; (endpoint: mean survival time, dose: 200.0 mg/kg/injection, schedule: Q04DX003 (ip), vehicle: carboxymethylcellulose (CMC)) 94 % of control. In addition, the T/C was 102 % of control (endpoint: mean survival time, dose: 400.0 mg/kg/injection, schedule: Q01DX001 (ip), vehicle: carboxymethylcellulose (CMC)); 96 % of control and 104 % of control (endpoint: mean survival time, dose: 400.0 mg/kg/injection, schedule: Q01DX009 (ip), vehicle: carboxymethylcellulose (CMC)); 96 % of control (endpoint: mean survival time, dose: 400.0 mg/kg/injection, schedule: Q04DX003 (ip), vehicle: carboxymethylcellulose (CMC)).
Turning to `CC12CCC(=O)C=C1CCC1C2CCC2(C)C1CCC2(O)C#CCN(CCCl)CCCl` (stereo unspecified), the T/C by setting is: (endpoint: mean survival time, dose: 100.0 mg/kg/injection, schedule: Q01DX001 (sc), vehicle: steriod suspending solution) 96 % of control; (endpoint: mean survival time, dose: 200.0 mg/kg/injection, schedule: Q01DX001 (sc), vehicle: steriod suspending solution) 104 % of control; (endpoint: mean survival time, dose: 400.0 mg/kg/injection, schedule: Q01DX001 (sc), vehicle: steriod suspending solution) 98 % of control.
Turning to `CCCCCCCCCCCCCC[N+](C)(C)Cc1cc(=O)c(O)co1`, the T/C reads like this: (endpoint: mean survival time, dose: 12.5 mg/kg/injection, schedule: Q01DX015 (ip), vehicle: saline) 97 % of control; (endpoint: mean survival time, dose: 25.0 mg/kg/injection, schedule: Q01DX015 (ip), vehicle: saline) 102 % of control; under setting [10], 97 % of control; (endpoint: mean survival time, dose: 50.0 mg/kg/injection, schedule: Q01DX015 (ip), vehicle: saline) 96 % of control; under setting [11], 101 % of control; (endpoint: mean survival time, dose: 100.0 mg/kg/injection, schedule: Q01DX015 (ip), vehicle: saline) 106 % of control. The T/C under setting [1] is 87 % of control and the T/C under setting [2] is 101 % of control.
With `CCOC(=O)/C(O)=C/c1cnc2ccccc2n1`, the T/C runs as follows: under setting [7], 94 % of control; under setting [8], 91 % of control; under setting [9], 94 % of control.
With `Cc1cc(Cl)ccc1NC(=O)C(c1ccccc1)c1ccccc1`, the T/C is 89 % of control under setting [8]; 101 % of control under setting [1]; 92 % of control under setting [9]; 95 % of control under setting [3]; 93 % of control (endpoint: mean survival time, dose: 400.0 mg/kg/injection, schedule: Q01DX009 (ip), vehicle: Klucel (hydroxypropylcellulose) (HPC)); 88 % of control under setting [5].

Source of the values: PubChem BioAssay AID248 (DTP/NCI, 2004).
